# Measurements from publication PMC9412875, “^64Cu-DOTHA2-PSMA, a Novel PSMA PET Radiotracer for Prostate Cancer with a Long Imaging Time Window” (Pharmaceuticals, 2022).
# What was measured:
# [1] = Lipophilicity (log D), octanol/PBS partition; type: physicochemical; conditions: octanol / PBS pH 7.4, triplicate
# Description: For log D measurements, 8 MBq of ^64Cu-DOTHA2-PSMA was added to a pre-saturated mixture of phosphate-buffered saline pH 7.4 (500 µL) and octanol (500 µL). Samples were shaken for 30 min at room temperature, centrifuged at 7000 rpm for 5 min, and 100 µL of each phase was counted using a Packard Cobra gamma counter. Experiments were performed in triplicate and the value was presented as log Dmean ± SD, where D was calculated as D = (Average of CPM in octanol / CPM in PBS).
# [2] = Plasma stability (ex vivo) and protein binding in mouse serum/plasma; type: in vitro ADME; conditions: for 64Cu released from Proteins / 64Cu-DOTHA2-PSMA Released from Proteins: after 10% TFA; for proportion of free 64Cu: excess natCu-DOTHA2-PSMA
# Description: Plasma stability studies were carried out by incubating ^64Cu-DOTHA2-PSMA (50 MBq in 250 μL PBS buffer) in 250 μL of mouse serum at 37 °C for up to 24 h. The plasma was then mixed twice with ethanol (1:1) to precipitate all the proteins. The samples were subjected to vortex mixing for 1 min and then centrifugation for 10 min at 7000 rpm. Plasma proteins were separated from the soluble component by ultracentrifugation and the radioactivity was assessed. The supernatant fraction was assayed by radio-TLC on C18 plates and by UPLC; free ^64Cu(OAc)2 and ^64Cu-DOTHA2-PSMA were used as standards. The radio-TLCs were eluted with 0.1 M sodium citrate buffer at pH 5.5 using an Instant Imager system (BioScan, DC, U.S.A.) for radiodetection. The precipitated proteins were again subjected to 10% TFA, vortexed for 2–3 min, and then centrifuged for 10 min at 7000 rpm. The separation and analysis for the supernatant and the proteins were performed in the same manner.
# The protein binding ability was evaluated by incubating ^64Cu-DOTHA2-PSMA (100 MBq) in phosphate buffer (250 μL, pH 7) at 37 °C and fresh mouse serum (250 μL) and for 1 h, 4 h, and 24 h. Plasma proteins were precipitated by the addition of ethanol (1:1, v/v) to the plasma samples, followed by centrifugation at 7000 rpm for 5 min at room temperature and separation of the supernatant. This process was repeated three times with the same volume of ethanol, and the supernatants were pooled. The radioactivity content of the supernatant and the precipitated protein were measured in a dose calibrator to obtain the protein binding percentage.
# [3] = tested on: LNCaP tumor; test: Tumor-bearing mice biodistribution after PET; type: in vivo, NRG mice; conditions: 24 h p.i.
# Description: Balb/c mice (n = 30) were injected with a bolus of ^64Cu-DOTHA2-PSMA by the tail vein (in 0.3 mL of saline: 3 MBq for 1 h, 2 h, and 4 h p.i., 7.5 MBq for 24 h p.i. and 21 MBq for 48 h p.i.). Injected activity had to be increased for later time points to ensure reliable detection and reliability in organs with a low uptake, e.g., the brain. At all timepoints, blood was collected using a heparin-coated syringe by femoral vein puncture and mice were then euthanized and dissected. Harvested tissues were rinsed, blotted dry, and then weighted and counted in gamma counter. The results are reported as the %IA per gram of tissue. The biodistribution results were compared with the ^68Ga-PSMA-617 results obtained by our team at 1 h and 2 h p.i.
# PET imaging of NRG mice and supplemental tumor-bearing mice were biodistributed 24 h p.i. as described for balb/c mice.
# [4] = ex vivo, mouse plasma, 100 equiv. natCu-DOTHA2-PSMA, 1 h
# [5] = ex vivo, mouse plasma, 100 equiv. natCu-DOTHA2-PSMA, 4 h
# [6] = ex vivo, mouse plasma, 100 equiv. natCu-DOTHA2-PSMA, 24 h
# [7] = Blocked (n=4), co-injection of natCu-DOTHA2-PSMA
compound,measurement,setting,value
CN([O-])C(=O)CN1CCN(CC(=O)NCC2CCC(C(=O)NC(Cc3ccc4ccccc4c3)C(=O)NCCCCC(NC(=O)NC(CCC(=O)O)C(=O)O)C(=O)O)CC2)CCN(CC(=O)N(C)[O-])CCN(CC(=O)N(C)O)CC1.[64Cu+2] (stereo not drawn) [^64Cu-DOTHA2-PSMA],log D,[1],-0.96 ± 0.61
same,"demetallation or degradation in mouse serum (radio-UPLC, radio-TLC)","[2]; 37 °C, up to 24 h",No major demetallation or degradation
same,change of signal bound to plasma proteins on adding excess natCu-DOTHA2-PSMA,"[2]; ex vivo, 4 h",1%
same,change of signal bound to plasma proteins on adding excess natCu-DOTHA2-PSMA,"[2]; ex vivo, 24 h",6%
same,64Cu in the Supernatant,"[2]; ex vivo, mouse plasma 37 °C, 1 h, % of total signal",0%
same,64Cu in the Supernatant,"[2]; ex vivo, mouse plasma 37 °C, 4 h, % of total signal",1.98%
same,64Cu in the Supernatant,"[2]; ex vivo, mouse plasma 37 °C, 24 h, % of total signal",1.28%
same,64Cu and 64Cu-DOTHA2-PSMA Bound to Plasma Proteins,[2]; [4],24%
same,64Cu in the Supernatant,[2]; [4],0%
same,64Cu released from Proteins,[2]; [4],0.82%
same,64Cu and 64Cu-DOTHA2-PSMA Bound to Plasma Proteins,[2]; [5],33%
same,64Cu in the Supernatant,[2]; [5],3.35%
same,64Cu released from Proteins,[2]; [5],0.84%
same,64Cu and 64Cu-DOTHA2-PSMA Bound to Plasma Proteins,[2]; [6],30%
same,64Cu in the Supernatant,[2]; [6],5.60%
same,64Cu released from Proteins,[2]; [6],2.14%
same,64Cu and 64Cu-DOTHA2-PSMA Bound to Plasma Proteins,"[2]; ex vivo, mouse plasma, 1 h",24%
same,signal attributed to free 64Cu overall (supernatant and precipitate),"[2]; ex vivo, mouse plasma, 1 h",0.79%
same,64Cu-DOTHA2-PSMA Released from Proteins,"[2]; ex vivo, mouse plasma, 1 h",15%
same,64Cu released from Proteins,"[2]; ex vivo, mouse plasma, 1 h, % of total signal",0.79%
same,64Cu and 64Cu-DOTHA2-PSMA Bound to Plasma Proteins,"[2]; ex vivo, mouse plasma, 4 h",34%
same,signal attributed to free 64Cu overall (supernatant and precipitate),"[2]; ex vivo, mouse plasma, 4 h",2.62%
same,64Cu-DOTHA2-PSMA Released from Proteins,"[2]; ex vivo, mouse plasma, 4 h",21%
same,64Cu released from Proteins,"[2]; ex vivo, mouse plasma, 4 h, % of total signal",0.64%
same,64Cu and 64Cu-DOTHA2-PSMA Bound to Plasma Proteins,"[2]; ex vivo, mouse plasma, 24 h",36%
same,"free 64Cu, share of the plasma supernatant signal (UPLC)","[2]; ex vivo, mouse plasma, 24 h",less than 3%
same,64Cu-DOTHA2-PSMA Released from Proteins,"[2]; ex vivo, mouse plasma, 24 h",21%
same,64Cu released from Proteins,"[2]; ex vivo, mouse plasma, 24 h, % of total signal",0.65%
same,proportion of free 64Cu,"[2]; ex vivo, mouse plasma, 1 h",0.82%
same,proportion of free 64Cu,"[2]; ex vivo, mouse plasma, 4 h",4.19%
same,proportion of free 64Cu,"[2]; ex vivo, mouse plasma, 24 h",7.75%
same,Adrenals uptake,[3]; [7],9.02 %IA/g
same,Blood uptake,[3]; [7],1.91 %IA/g
same,Bone uptake,[3]; [7],0.91 %IA/g
same,Brain uptake,[3]; [7],0.38 %IA/g
same,Fat uptake,[3]; [7],0.26 %IA/g
same,Heart uptake,[3]; [7],3.00 %IA/g
same,Intestin uptake,[3]; [7],8.53 %IA/g
same,Kidneys uptake,[3]; [7],6.86 %IA/g
same,LNCaP tumor uptake,[3]; [7],7.44 %IA/g
same,Lungs uptake,[3]; [7],5.99 %IA/g
same,Muscles uptake,[3]; [7],0.47 %IA/g
same,Pancreas uptake,[3]; [7],2.09 %IA/g
same,Plasma uptake,[3]; [7],2.54 %IA/g
same,Salivary gl. uptake,[3]; [7],1.84 %IA/g
same,Seminal gl. uptake,[3]; [7],0.59 %IA/g
same,Skin uptake,[3]; [7],0.50 %IA/g
same,Spleen uptake,[3]; [7],6.99 %IA/g
same,Stomach uptake,[3]; [7],5.55 %IA/g
same,Tail uptake,[3]; [7],1.36 %IA/g
same,Testis uptake,[3]; [7],1.03 %IA/g
same,Thyroid uptake,[3]; [7],1.33 %IA/g
same,liver uptake,[3]; [7],15.15 %IA/g
same,Adrenals uptake,[3]; Non-blocked (n=11),4.70 %IA/g
same,Blood uptake,[3]; Non-blocked (n=11),3.46 %IA/g
same,Bone uptake,[3]; Non-blocked (n=11),2.38 %IA/g
same,Brain uptake,[3]; Non-blocked (n=11),0.75 %IA/g
same,Fat uptake,[3]; Non-blocked (n=11),0.63 %IA/g
same,Heart uptake,[3]; Non-blocked (n=11),5.20 %IA/g
same,Intestin uptake,[3]; Non-blocked (n=11),15.69 %IA/g
same,Kidneys uptake,[3]; Non-blocked (n=11),13.24 %IA/g
same,LNCaP tumor uptake,[3]; Non-blocked (n=11),17.33 %IA/g
same,Lungs uptake,[3]; Non-blocked (n=11),14.30 %IA/g
same,Muscles uptake,[3]; Non-blocked (n=11),1.10 %IA/g
same,Pancreas uptake,[3]; Non-blocked (n=11),2.80 %IA/g
same,Plasma uptake,[3]; Non-blocked (n=11),4.52 %IA/g
same,Salivary gl. uptake,[3]; Non-blocked (n=11),4.18 %IA/g
same,Seminal gl. uptake,[3]; Non-blocked (n=11),1.13 %IA/g
same,Skin uptake,[3]; Non-blocked (n=11),1.07 %IA/g
same,Spleen uptake,[3]; Non-blocked (n=11),10.10 %IA/g
same,Stomach uptake,[3]; Non-blocked (n=11),9.17 %IA/g
same,Tail uptake,[3]; Non-blocked (n=11),2.37 %IA/g
same,Testis uptake,[3]; Non-blocked (n=11),1.96 %IA/g
same,Thyroid uptake,[3]; Non-blocked (n=11),2.57 %IA/g
same,liver uptake,[3]; Non-blocked (n=11),28.54 %IA/g
